Source: the kinase profiling compilation of Christmann-Franck et al. (2016)

What was measured:
Test in all cases: radiometric filter-binding kinase assay
CSNK2A1 (human) = CSNK2A1 (human) (UniProt P68400)
DAPK1 (human) = DAPK1 (human) (UniProt P53355)
MAPK3 (human) = MAPK3 (human) (UniProt P27361)
IKBKB (human) = IKBKB (human) (UniProt O14920)
ROCK2 (rat) = conditions: accession and sequence are those of the human protein
RPS6KA1 KD1 KD2 (human) = RPS6KA1 KD1 KD2 (human) (UniProt Q15418)
MAP2K6 (human) = MAP2K6 (human) (UniProt P52564)
MAPK14 (human) = MAPK14 (human) (UniProt Q16539)
MAPK12 (human) = MAPK12 (human) (UniProt P53778)
PIM2 (human) = PIM2 (human) (UniProt Q9P1W9)
DYRK3 (human) = DYRK3 (human) (UniProt O43781)
NTRK1 (human) = NTRK1 (human) (UniProt P04629)
Sequence of NTRK1 (human) (P04629 whole entry, looked up): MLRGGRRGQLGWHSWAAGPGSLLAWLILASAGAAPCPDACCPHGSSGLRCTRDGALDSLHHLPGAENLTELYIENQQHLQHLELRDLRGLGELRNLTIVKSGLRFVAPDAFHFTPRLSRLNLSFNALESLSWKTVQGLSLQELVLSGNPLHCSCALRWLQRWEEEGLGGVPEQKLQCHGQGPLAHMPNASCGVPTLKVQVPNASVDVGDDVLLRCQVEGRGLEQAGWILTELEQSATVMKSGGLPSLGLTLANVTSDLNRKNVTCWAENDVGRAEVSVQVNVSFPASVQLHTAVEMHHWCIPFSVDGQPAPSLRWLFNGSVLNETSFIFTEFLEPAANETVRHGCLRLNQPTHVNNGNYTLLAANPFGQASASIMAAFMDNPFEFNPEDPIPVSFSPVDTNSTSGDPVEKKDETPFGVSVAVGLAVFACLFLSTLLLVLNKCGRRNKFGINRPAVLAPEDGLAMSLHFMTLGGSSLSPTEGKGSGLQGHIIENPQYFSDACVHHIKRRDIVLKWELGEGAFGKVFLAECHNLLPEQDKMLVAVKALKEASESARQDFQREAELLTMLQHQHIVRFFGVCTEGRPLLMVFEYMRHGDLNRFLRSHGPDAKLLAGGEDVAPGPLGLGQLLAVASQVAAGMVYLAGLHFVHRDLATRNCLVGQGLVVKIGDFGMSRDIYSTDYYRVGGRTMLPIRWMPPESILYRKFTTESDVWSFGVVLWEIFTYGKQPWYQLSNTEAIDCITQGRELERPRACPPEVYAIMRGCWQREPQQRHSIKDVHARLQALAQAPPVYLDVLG

CLK2 (human) = CLK2 (human) (UniProt P49760)
[1] = system: AKT1 (human), P31749 [S473D]
IRAK4 (human) = IRAK4 (human) (UniProt Q9NWZ3)
IKBKE (human) = IKBKE (human) (UniProt Q14164)
MKNK2 (human) = MKNK2 (human) (UniProt Q9HBH9)
TBK1 (human) = TBK1 (human) (UniProt Q9UHD2)
MAPKAPK3 (human) = MAPKAPK3 (human) (UniProt Q16644)
PAK4 (human) = PAK4 (human) (UniProt O96013)
PLK1 (human) = PLK1 (human) (UniProt P53350)
MAP3K11 (human) = MAP3K11 (human) (UniProt Q16584)
STK3 (human) = STK3 (human) (UniProt Q13188)
Sequence of STK3 (human) (Q13188 whole entry, looked up): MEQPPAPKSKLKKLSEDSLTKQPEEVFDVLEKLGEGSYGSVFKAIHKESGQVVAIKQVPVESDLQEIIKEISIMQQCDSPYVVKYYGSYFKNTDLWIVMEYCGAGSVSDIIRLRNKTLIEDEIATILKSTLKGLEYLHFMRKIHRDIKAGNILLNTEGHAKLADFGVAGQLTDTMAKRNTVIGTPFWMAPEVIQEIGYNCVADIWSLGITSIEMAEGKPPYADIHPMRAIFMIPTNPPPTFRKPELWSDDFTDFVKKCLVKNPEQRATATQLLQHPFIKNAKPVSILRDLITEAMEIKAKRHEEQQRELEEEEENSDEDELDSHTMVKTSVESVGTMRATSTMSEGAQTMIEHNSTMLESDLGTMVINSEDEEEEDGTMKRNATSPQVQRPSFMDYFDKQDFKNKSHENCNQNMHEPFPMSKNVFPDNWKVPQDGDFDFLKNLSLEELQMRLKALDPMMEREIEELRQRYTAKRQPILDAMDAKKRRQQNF

[2] = system: SGK1 (human), O00141 [S422D]
Sequence of SGK1 (human), O00141 [S422D] (O00141 whole entry S422D, looked up): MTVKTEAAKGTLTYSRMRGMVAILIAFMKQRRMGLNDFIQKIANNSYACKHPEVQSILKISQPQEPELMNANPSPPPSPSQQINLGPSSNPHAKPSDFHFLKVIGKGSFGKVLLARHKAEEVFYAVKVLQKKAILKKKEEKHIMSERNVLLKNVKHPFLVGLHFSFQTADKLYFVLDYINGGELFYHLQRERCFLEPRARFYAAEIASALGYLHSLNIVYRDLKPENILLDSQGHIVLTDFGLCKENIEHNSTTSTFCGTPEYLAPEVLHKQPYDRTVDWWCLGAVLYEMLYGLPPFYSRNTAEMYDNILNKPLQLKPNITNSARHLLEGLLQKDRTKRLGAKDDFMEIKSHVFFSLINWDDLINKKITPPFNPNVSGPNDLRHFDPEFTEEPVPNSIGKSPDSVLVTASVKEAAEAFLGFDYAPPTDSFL

MAPK11 (human) = MAPK11 (human) (UniProt Q15759)
Sequence of MAPK11 (human) (Q15759 whole entry, looked up): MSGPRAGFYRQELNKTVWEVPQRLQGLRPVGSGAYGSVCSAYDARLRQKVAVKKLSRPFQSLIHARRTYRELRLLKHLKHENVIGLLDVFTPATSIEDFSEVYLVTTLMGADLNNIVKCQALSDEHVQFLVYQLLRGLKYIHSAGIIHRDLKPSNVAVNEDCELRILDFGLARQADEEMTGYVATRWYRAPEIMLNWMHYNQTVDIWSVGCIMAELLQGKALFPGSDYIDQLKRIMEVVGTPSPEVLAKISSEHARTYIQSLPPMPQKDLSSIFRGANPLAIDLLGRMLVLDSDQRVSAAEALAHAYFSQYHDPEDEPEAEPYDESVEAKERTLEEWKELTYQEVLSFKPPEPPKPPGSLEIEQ

MAPKAPK5 (human) = MAPKAPK5 (human) (UniProt Q8IW41)
BRSK2 (human) = BRSK2 (human) (UniProt Q8IWQ3)
MAPK8 (human) = MAPK8 (human) (UniProt P45983)
EPHB3 (human) = EPHB3 (human) (UniProt P54753)
[3] = system: RPS6KB1 (human), P23443 [T412E]
PIM3 (human) = PIM3 (human) (UniProt Q86V86)
RPS6KA3 KD1 KD2 (human) = RPS6KA3 KD1 KD2 (human) (UniProt P51812)
PIM1 (human) = PIM1 (human) (UniProt P11309)
Sequence of PIM1 (human) (P11309 whole entry, looked up): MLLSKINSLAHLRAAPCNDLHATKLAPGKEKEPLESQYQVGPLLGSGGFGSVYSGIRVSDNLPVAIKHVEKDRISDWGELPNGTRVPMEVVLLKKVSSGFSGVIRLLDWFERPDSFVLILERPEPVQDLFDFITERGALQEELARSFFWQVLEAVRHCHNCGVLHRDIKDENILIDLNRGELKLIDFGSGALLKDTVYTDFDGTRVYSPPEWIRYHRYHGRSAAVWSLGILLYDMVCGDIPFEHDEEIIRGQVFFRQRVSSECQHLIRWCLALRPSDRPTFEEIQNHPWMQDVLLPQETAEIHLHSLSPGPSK

DYRK1A (human) = DYRK1A (human) (UniProt Q13627)
MAP3K7 TAB1 (human) = MAP3K7 TAB1 (human) (UniProt Q15750+O43318)

Sequence of IKBKB (human) (O14920 whole entry, looked up): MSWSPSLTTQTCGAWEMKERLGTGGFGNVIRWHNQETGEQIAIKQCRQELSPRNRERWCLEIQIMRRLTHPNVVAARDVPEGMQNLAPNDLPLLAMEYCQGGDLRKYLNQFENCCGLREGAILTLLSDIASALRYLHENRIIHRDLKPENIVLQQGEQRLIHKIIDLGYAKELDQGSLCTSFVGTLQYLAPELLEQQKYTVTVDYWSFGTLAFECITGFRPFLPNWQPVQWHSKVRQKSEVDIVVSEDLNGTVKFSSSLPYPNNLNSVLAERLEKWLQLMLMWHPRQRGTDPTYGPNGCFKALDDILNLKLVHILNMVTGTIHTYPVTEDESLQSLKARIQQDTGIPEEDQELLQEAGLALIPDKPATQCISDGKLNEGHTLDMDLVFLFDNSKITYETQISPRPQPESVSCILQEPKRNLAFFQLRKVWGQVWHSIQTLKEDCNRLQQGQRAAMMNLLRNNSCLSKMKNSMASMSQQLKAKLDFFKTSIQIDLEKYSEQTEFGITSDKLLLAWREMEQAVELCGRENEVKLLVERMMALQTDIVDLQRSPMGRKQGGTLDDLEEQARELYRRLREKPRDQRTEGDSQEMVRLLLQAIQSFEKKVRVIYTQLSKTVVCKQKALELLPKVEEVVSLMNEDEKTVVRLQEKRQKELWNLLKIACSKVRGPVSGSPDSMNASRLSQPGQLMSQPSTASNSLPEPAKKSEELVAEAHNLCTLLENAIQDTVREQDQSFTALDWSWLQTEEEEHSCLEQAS
Sequence of DAPK1 (human) (P53355 whole entry, looked up): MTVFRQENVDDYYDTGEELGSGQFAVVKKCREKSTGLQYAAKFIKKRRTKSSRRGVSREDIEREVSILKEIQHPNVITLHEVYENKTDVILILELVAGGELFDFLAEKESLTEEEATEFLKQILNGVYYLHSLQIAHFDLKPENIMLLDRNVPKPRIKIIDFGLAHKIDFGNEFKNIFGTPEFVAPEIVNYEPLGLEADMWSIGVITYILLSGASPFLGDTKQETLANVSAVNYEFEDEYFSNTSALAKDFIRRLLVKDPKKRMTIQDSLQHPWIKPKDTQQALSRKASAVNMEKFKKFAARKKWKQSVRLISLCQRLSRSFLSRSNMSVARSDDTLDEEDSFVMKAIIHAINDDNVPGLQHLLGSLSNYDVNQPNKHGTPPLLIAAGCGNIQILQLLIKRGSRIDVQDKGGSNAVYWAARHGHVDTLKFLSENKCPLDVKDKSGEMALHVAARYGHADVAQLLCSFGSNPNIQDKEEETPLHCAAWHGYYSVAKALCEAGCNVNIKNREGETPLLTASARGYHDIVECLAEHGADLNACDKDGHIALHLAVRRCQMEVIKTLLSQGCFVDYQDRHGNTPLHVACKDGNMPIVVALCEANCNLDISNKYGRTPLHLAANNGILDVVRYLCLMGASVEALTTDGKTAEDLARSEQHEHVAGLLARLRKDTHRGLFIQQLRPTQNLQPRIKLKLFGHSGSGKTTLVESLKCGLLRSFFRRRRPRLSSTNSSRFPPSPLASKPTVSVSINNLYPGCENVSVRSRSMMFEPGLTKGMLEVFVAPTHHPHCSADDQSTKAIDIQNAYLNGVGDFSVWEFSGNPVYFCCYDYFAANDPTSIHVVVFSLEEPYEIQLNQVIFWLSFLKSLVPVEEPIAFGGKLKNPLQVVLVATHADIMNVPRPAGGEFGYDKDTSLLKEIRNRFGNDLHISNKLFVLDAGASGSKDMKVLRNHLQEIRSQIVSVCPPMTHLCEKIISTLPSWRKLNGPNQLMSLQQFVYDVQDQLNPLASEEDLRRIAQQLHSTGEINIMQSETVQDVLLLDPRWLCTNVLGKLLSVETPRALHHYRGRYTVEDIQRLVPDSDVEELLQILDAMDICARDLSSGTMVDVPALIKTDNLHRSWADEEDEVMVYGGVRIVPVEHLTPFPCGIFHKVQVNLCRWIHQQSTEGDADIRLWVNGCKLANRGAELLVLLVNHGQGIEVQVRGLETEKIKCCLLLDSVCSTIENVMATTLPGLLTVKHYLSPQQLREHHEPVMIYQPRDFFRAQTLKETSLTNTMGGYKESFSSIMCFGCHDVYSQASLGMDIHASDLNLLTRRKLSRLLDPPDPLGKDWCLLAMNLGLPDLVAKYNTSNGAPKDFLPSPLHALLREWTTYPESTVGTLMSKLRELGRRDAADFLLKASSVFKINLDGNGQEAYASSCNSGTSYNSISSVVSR
Sequence of MAPK3 (human) (P27361 whole entry, looked up): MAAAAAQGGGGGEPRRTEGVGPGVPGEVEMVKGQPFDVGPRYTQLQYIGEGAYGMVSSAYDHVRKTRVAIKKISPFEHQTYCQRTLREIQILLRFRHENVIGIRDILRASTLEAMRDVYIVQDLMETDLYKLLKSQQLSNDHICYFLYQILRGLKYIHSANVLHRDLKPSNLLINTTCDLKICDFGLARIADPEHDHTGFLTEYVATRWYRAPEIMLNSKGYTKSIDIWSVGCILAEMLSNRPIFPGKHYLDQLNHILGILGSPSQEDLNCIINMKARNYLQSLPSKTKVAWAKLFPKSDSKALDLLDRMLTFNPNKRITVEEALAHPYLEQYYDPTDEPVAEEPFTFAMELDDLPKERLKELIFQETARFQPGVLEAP

N#Cc1c(C2CCNCC2)cc(-c2c(O)cccc2OCC2CC2)nc1N
residual activity (CSNK2A1 (human); compound 1.0 µM): 91%
residual activity (CSNK2A1 (human); compound 10.0 µM): 93%
residual activity (DAPK1 (human); compound 1.0 µM): 68%
residual activity (DAPK1 (human); compound 10.0 µM): 46%
residual activity (MAPK3 (human); compound 1.0 µM): 85%
residual activity (MAPK3 (human); compound 10.0 µM): 80%
residual activity (IKBKB (human); compound 1.0 µM): 6%
residual activity (IKBKB (human); compound 10.0 µM): 4%
residual activity (ROCK2 (rat); compound 1.0 µM): 88%
residual activity (ROCK2 (rat); compound 10.0 µM): 61%
residual activity (RPS6KA1 KD1 KD2 (human); compound 1.0 µM): 45%
residual activity (RPS6KA1 KD1 KD2 (human); compound 10.0 µM): 6%
residual activity (MAP2K6 (human); compound 1.0 µM): 76%
residual activity (MAP2K6 (human); compound 10.0 µM): 83%
residual activity (MAPK14 (human); compound 1.0 µM): 102%
residual activity (MAPK14 (human); compound 10.0 µM): 91%
residual activity (MAPK12 (human); compound 1.0 µM): 94%
residual activity (MAPK12 (human); compound 10.0 µM): 72%
residual activity (PIM2 (human); compound 1.0 µM): 34%
residual activity (PIM2 (human); compound 10.0 µM): 12%
residual activity (DYRK3 (human); compound 1.0 µM): 84%
residual activity (DYRK3 (human); compound 10.0 µM): 40%
residual activity (NTRK1 (human); compound 1.0 µM): 68%
residual activity (NTRK1 (human); compound 10.0 µM): 20%
residual activity (CLK2 (human); compound 1.0 µM): 43%
residual activity (CLK2 (human); compound 10.0 µM): 7%
residual activity ([1]; compound 1.0 µM): 81%
residual activity ([1]; compound 10.0 µM): 63%
residual activity (IRAK4 (human); compound 1.0 µM): 124%
residual activity (IRAK4 (human); compound 10.0 µM): 70%
residual activity (IKBKE (human); compound 1.0 µM): 87%
residual activity (IKBKE (human); compound 10.0 µM): 96%
residual activity (MKNK2 (human); compound 1.0 µM): 113%
residual activity (MKNK2 (human); compound 10.0 µM): 89%
residual activity (TBK1 (human); compound 1.0 µM): 80%
residual activity (TBK1 (human); compound 10.0 µM): 86%
residual activity (MAPKAPK3 (human); compound 1.0 µM): 87%
residual activity (MAPKAPK3 (human); compound 10.0 µM): 85%
residual activity (PAK4 (human); compound 1.0 µM): 112%
residual activity (PAK4 (human); compound 10.0 µM): 69%
residual activity (PLK1 (human); compound 1.0 µM): 83%
residual activity (PLK1 (human); compound 10.0 µM): 87%
residual activity (MAP3K11 (human); compound 1.0 µM): 87%
residual activity (MAP3K11 (human); compound 10.0 µM): 44%
residual activity (STK3 (human); compound 1.0 µM): 83%
residual activity (STK3 (human); compound 10.0 µM): 34%
residual activity ([2]; compound 1.0 µM): 96%
residual activity ([2]; compound 10.0 µM): 69%
residual activity (MAPK11 (human); compound 1.0 µM): 88%
residual activity (MAPK11 (human); compound 10.0 µM): 71%
residual activity (MAPKAPK5 (human); compound 1.0 µM): 90%
residual activity (MAPKAPK5 (human); compound 10.0 µM): 88%
residual activity (BRSK2 (human); compound 1.0 µM): 92%
residual activity (BRSK2 (human); compound 10.0 µM): 46%
residual activity (MAPK8 (human); compound 1.0 µM): 110%
residual activity (MAPK8 (human); compound 10.0 µM): 80%
residual activity (EPHB3 (human); compound 1.0 µM): 94%
residual activity (EPHB3 (human); compound 10.0 µM): 74%
residual activity ([3]; compound 1.0 µM): 88%
residual activity ([3]; compound 10.0 µM): 53%
residual activity (PIM3 (human); compound 1.0 µM): 56%
residual activity (PIM3 (human); compound 10.0 µM): 27%
residual activity (RPS6KA3 KD1 KD2 (human); compound 1.0 µM): 39%
residual activity (RPS6KA3 KD1 KD2 (human); compound 10.0 µM): 11%
residual activity (PIM1 (human); compound 1.0 µM): 63%
residual activity (PIM1 (human); compound 10.0 µM): 18%
residual activity (DYRK1A (human); compound 1.0 µM): 99%
residual activity (DYRK1A (human); compound 10.0 µM): 80%
residual activity (MAP3K7 TAB1 (human); compound 1.0 µM): 73%
residual activity (MAP3K7 TAB1 (human); compound 10.0 µM): 39%
